Columns and labels:
CoA-IT = test: Microsomal CoA-IT activity assay (U937 cell microsomes); type: biochemical; details: increased uM or longer pretreatment time
Excerpt: The following is a method to measure CoA-IT activity and the effects of compounds on CoA-IT activity. The assay is based upon mixing cellular material containing CoA-IT activity with a stable lyso phospholipid such as 1-alkyl-2-acyl-GPC and measuring the production of phospholipid product such as 1-alkyl-2-acyl-GPC occurring in the absence of added CoA or CoA-fatty acids.
Any inflammatory cell that contains high levels of COA-IT activity can be used, such as neutrophils, macrophages or cell lines such as U937 cells. U937 cells were obtained from American Type Culture Collection and grown in RPMI- 1640 media (Gibco, Grand Island, N.Y.) supplemented with 10% fetal bovine serum (Hyclone, Logan, Utah) at 37° C., 5% CO2. Cells were grown without differentiation (basal state) by any agent, such as dimethyl sulfoxide.
Microsomes were prepared using standard techniques. […]
CoA-lT activity was measured in 1.5 ml centrifuge tubes in a total volume of 100 ul. […] An aliquot of the chloroform-extracted materials were separated, usually by TLC in chloroform/methanol/acetic acid/water (50:25:8:4, v/v), visualized by radioscanning (Bioscan) and the product, [^3 H]1-alkyl-2-acyl-GPC, was scraped and quantified by liquid scintillation spectroscopy. […]
Protein concentration were assessed using the protein assay reagents from Bio-Rad (Richmond, Calif.).

[1] = test system: phorbol ester-induced inflammation in mouse ear; test: TPA-induced mouse ear inflammation (ear edema and MPO); type: in vivo; details: topical, Balb/c mice
Protocol: Male Balb/c inbred mice were obtained from Charle River Breeding Laboratories (Kingston, N.Y.). Within a single experiment mice (22-25 g) were age-matched. These in vivo experiments typically involved use of 5-6 animals/group.
TPA (12-O-tetradecanoylphorbol 13-acetate) (Sigma Chemical Company) in acetone ([…]) was applied to the inner and outer surfaces of the left ear of BALB/c male mice. The thickness of both ears was then measured with a dial micrometer (Mitutoyo, Japan) at both 2 and 4 hours after treatment, and the data expressed as the change in thickness (10^-3 cm) between treated and untreated ears. […] After measuring the edema, the inflammed left ears were removed and stored at -70° C. until they were assayed for MPO (myeloperoxidase) activity where appropriate.
On the day of the assay, partially thawed ear tissues were minced and then homogenized (10% w/v) with a Tissumnizer homogenizer (Tekmar Co.) in 50 mM phosphate buffer (pH 6) containing 0.5% HTAB. […] Supernatant MPO activity was quantified kinetically (change in absorbance measured over 3 min, sampled at 15-sec intervals) using a Beckman DU-7 spectrophotometer and a Kinetics Analysis package (Beckman Instruments, Inc.). […]
Balb/c mice were given PMA followed by the test compound. The edematous response was measured using a thickness gauge 4 hrs post PMA application. […]

Structure (SMILES)	activity in CoA-IT assay at increased concentration or longer pretreatment (CoA-IT)	Edema @ 4 hr ED50 ([1]; 4 hrs post PMA application) [mg/ear]	MPO response ED50 ([1]; inflamed ears harvested after the 4 hr edema measurement) [mg/ear]
COC(=O)CCCO[C@@H]1NC(=O)[C@H]1NC(c1ccccc1)(c1ccccc1)c1ccccc1 [Example 17, (3S,4S)-4-[3-(Methoxycarbonyl)propoxy]-3-(triphenylmethylamino)azetidin-2-one]	active at either increased uM or longer pretreatment time		
C[C@@H]1C[C@H]2[C@@H]3CCC4=CC(=O)C=C[C@]4(C)[C@@]3(F)[C@@H](O)C[C@]2(C)[C@@]1(O)C(=O)CO [dexamethasone, reference compound]		0.06	0.03

Reference: patent US6221860A, “Beta-lactam inhibitors of CoA-IT” (SmithKline Beecham Corporation, priority 1999, dated 2001)
